This is an account of results in patent US11548883B2, “Compounds as autotaxin inhibitors and pharmaceutical compositions comprising the same” (LegoChem Biosciences, Inc., priority 2017, dated 2023).

Broadly, the IC50 is the concentration that gives 50% inhibition. A low value points to greater potency in that assay.

Where a name gives a salt, the structure may show the parent alone. Bounds are passed on as bounds.

For one experiment, the target named is human ENPP2 (Homo sapiens (Human), UniProt Q13822). As to the kind of experiment: Inhibitory activity on human ENPP2 (FS-3 assay). The experiment is classed as biochemical. The note with it: human ENPP2, FS-3 substrate, Table 2. Here is the method:
Two-fold dilution of each test compound solution (10 μM, 100% dimethyl sulfoxide) is carried out on 96-well V bottom plate (Costar 3363). After ten-fold dilution of each the test compound solution (100% dimethyl sulfoxide) with deionized distilled water, 10 μL of the diluted each compound solution (10% dimethyl sulfoxide) was aliquoted to a black flat bottom 96-well plate (Costar 3915).

Experiment [1] has as its system LPA production in blood serum. As to the kind of experiment: Inhibitory activity on LPA production in mouse blood serum. The note with it: mouse blood serum (m), 18:1 LPC added. The format is biochemical.

Turning to `O=C(Cn1cc(-c2cnc(NC3Cc4ccccc4C3)nc2)c(CN2CCc3ccccc3C2)n1)N1CCc2[nH]nnc2C1` [Compound 84, 2-(4-{2-[(2,3-dihydro-1H-inden-2-yl)amino]pyrimidin-5-yl}-3-(1,2,3,4-tetrahydroisoquinolin-2-ylmethyl)-1H-pyrazol-1-yl)-1-{1H,4H,5H,6H,7H-[1,2,3]triazolo[4,5-c]pyridin-5-yl}ethan-1-one], the 50% inhibitory concentration (IC50) on human ENPP2 turned out to be 2.8 nM; in experiment [1], 8 nM.

Take `CN(C)c1nn(CC(=O)N2CCc3[nH]nnc3C2)cc1-c1cnc(NC2Cc3ccccc3C2)nc1` [Compound 74, 2-(4-{2-[(2,3-dihydro-1H-inden-2-yl)amino]pyrimidin-5-yl}-3-(dimethylamino)-1H-pyrazol-1-yl)-1-{1H,4H,5H,6H,7H-[1,2,3]triazolo[4,5-c]pyridin-5-yl}ethan-1-one]: the IC50 stood at 1.7 nM against human ENPP2 and 15 nM in experiment [1].

`CCOc1nn(CC(=O)N2CCc3[nH]nnc3C2)cc1-c1cnc(NC2Cc3ccccc3C2)nc1` [Compound 61, 2-(4-{2-[(2,3-dihydro-1H-inden-2-yl)amino]pyrimidin-5-yl}-3-ethoxy-1H-pyrazol-1-yl)-1-{1H,4H,5H,6H,7H-[1,2,3]triazolo[4,5-c]pyridin-5-yl}ethan-1-one] had an IC50 in experiment [1] of 25 nM.

`CN1C(=O)N(c2ccc3[nH]nnc3c2)C2(CCN(C(=O)c3cnc(NCc4cccc(OC(F)(F)F)c4)nc3)CC2)C1=O` [Compound 9, 1-(1H-1,2,3-benzotriazol-5-yl)-3-methyl-8[2-({[3-(trifluoromethoxy)phenyl]methyl}amino)pyrimidine-5-carbonyl]-1,3,8-triazaspiro[4,5]-decane-2,4-dione]: the midpoint of inhibition on human ENPP2, the IC50, lay at 9 nM.

`O=C(Cc1nnc(-c2cnc(NC3Cc4ccccc4C3)nc2)[nH]1)N1CCc2[nH]nnc2C1` [Compound 52, 2-(5-{2-[(2,3-dihydro-1H-inden-2-yl)amino]pyrimidin-5-yl}-4H-1,2,4-triazol-3-yl)-1-{1H,4H,5H,6H,7H-[1,2,3]triazolo[4,5-c]pyridin-5-yl}ethan-1-one] came in with a concentration for half-maximal inhibition (IC50) at human ENPP2 of 3.6 nM.

Turning to `O=C(Cn1cnc(-c2cnc(NC3Cc4ccccc4C3)nc2)c1)N1CCc2[nH]nnc2C1` [Compound 60, 2-(4-{2-[(2,3-dihydro-1H-inden-2-yl)amino]pyrimidin-5-yl}-1H-imidazol-1-yl)-1-{1H,4H,5H,6H,7H-[1,2,3]triazolo[4,5-c]pyridin-5-yl}ethan-1-one], the values for the IC50 (on human ENPP2; in experiment [1]) were 1.8 nM and 11 nM, respectively.

In turn, `O=C(Cn1cc(-c2cnc(NC3Cc4ccccc4C3)nc2)cn1)Nc1ccc2[nH]c(=O)oc2c1` [Compound 57, 2-(4-{2-[(2,3-dihydro-1H-inden-2-yl)amino]pyrimidin-5-yl}-1H-pyrazol-1-yl)-N-(2-oxo-2,3-dihydro-1,3-benzoxazol-6-yl)acetamide] came in with an IC50 on human ENPP2 of 2 nM.

With `O=C(Cn1cc(-c2cnc(NC3Cc4ccccc4C3)nc2)c(OC2CCNCC2)n1)N1CCc2[nH]nnc2C1` [Compound 69, 2-(4-{2-[(2,3-dihydro-1H-inden-2-yl)amino]pyrimidin-5-yl}-3-(piperidin-4-yloxy)-1H-pyrazol-1-yl)-1-{1H,4H,5H,6H,7H-[1,2,3]triazolo[4,5-c]pyridin-5-yl}ethan-1-one], the IC50 at human ENPP2 turned out to be 4 nM.

In the case of `O=C1CN(Cc2nn(CC(=O)N3CCc4[nH]nnc4C3)cc2-c2cnc(NC3Cc4ccccc4C3)nc2)CCN1` [Compound 82, 4-[(4-{2-[(2,3-dihydro-1H-inden-2-yl)amino]pyrimidin-5-yl}-1-(2-oxo-2-{1H,4H,5H,6H,7H-[1,2,3]triazolo[4,5-c]pyridin-5-yl}ethyl)-1H-pyrazol-3-yl)methyl]piperazin-2-one], the IC50 was below 1.56 nM on human ENPP2 and 8 nM in experiment [1].

As for `O=C(Cn1cc(-c2cnc(NC3Cc4ccccc4C3)nc2)c(OC2CNC2)n1)N1CCc2[nH]nnc2C1` [Compound 62, 2-[3-(azetidin-3-yloxy)-4-{2-[(2,3-dihydro-1H-inden-2-yl)amino]pyrimidin-5-yl}-1H-pyrazol-1yl]-1-{1H,4H,5H,6H,7H-[1,2,3]triazolo[4,5-c]pyridin-5-yl}ethan-1-one hydrochloride], the IC50 was found to be 2.4 nM against human ENPP2 and 22 nM in experiment [1].

On to `O=C(O)c1ccc(COc2nn(CC(=O)N3CCc4[nH]nnc4C3)cc2-c2cnc(NC3Cc4ccccc4C3)nc2)cc1` [Compound 72, 4-{[(4-{2-[(2,3-dihydro-1H-inden-2-yl)amino]pyrimidin-5-yl}-1-(2-oxo-2-{1H,4H,5H,6H,7H-[1,2,3]triazolo[4,5-c]pyridin-5-yl}ethyl)-1H-pyrazol-3-yl)oxy]methyl}benzoic Acid], for which the results for the IC50 (on human ENPP2; in experiment [1]) were 3.4 nM and 42 nM, respectively.

With `O=C1CNCCN1Cc1nn(CC(=O)N2CCc3[nH]nnc3C2)cc1-c1cnc(NC2Cc3ccccc3C2)nc1` [Compound 88, 1-[(4-{2-[(2,3-dihydro-1H-inden-2-yl)amino]pyrimidin-5-yl}-1-(2-oxo-2-{1H,4H,5H,6H,7H-[1,2,3]triazolo[4,5-c]pyridin-5-yl}ethyl)-1H-pyrazol-3-yl)methyl]piperazin-2-one], 4.1 nM corresponded to half-maximal inhibition at human ENPP2 (IC50). In other words, the single-digit nanomolar range.

`CCc1cc(-c2cnc(NC3Cc4ccccc4C3)nc2)nn1CC(=O)N1CCc2[nH]nnc2C1` [Compound 54, 2-(3-{2-[(2,3-dihydro-1H-inden-2-yl)amino]pyrimidin-5-yl}-5-ethyl-1H-pyrazol-1-yl)-1-{1H,4H,5H,6H,7H-[1,2,3]triazolo[4,5-c]pyridin-5-yl}ethan-1-one]: on human ENPP2, the IC50 came out at 15.8 nM.

In turn, `O=C(Cc1nnc(-c2cnc(NC3Cc4ccccc4C3)nc2)o1)N1CCc2[nH]nnc2C1` [Compound 33, 2-(5-(2-((2,3-dihydro-1H-inden-2-yl)amino)pyrimidin-5-yl)-1,3,4-oxadiazol-2-yl)-1-(1,4,6,7-tetrahydro-5H-[1,2,3]triazolo[4,5-c]pyridin-5-yl)ethan-1-one] showed a concentration for half-maximal inhibition (IC50) against human ENPP2 of 2 nM.

Compound `O=C(Cn1cc(-c2ccc(NC3Cc4ccccc4C3)nc2)cn1)N1CCc2[nH]nnc2C1` [Compound 58, 2-(4-{6-[(2,3-dihydro-1H-inden-2-yl)amino]pyridin-3-yl}-1H-pyrazol-1-yl)-1-{1H,4H,5H,6H,7H-[1,2,3]triazolo[4,5-c]pyridin-5-yl}ethan-1-one] yielded a 50% inhibitory concentration (IC50) against human ENPP2 of 3.5 nM.

Turning to `O=C(Cn1cc(-c2cnc(NC3Cc4ccccc4C3)nc2)c(CN2CC=C(c3ccccc3)CC2)n1)N1CCc2[nH]nnc2C1` [Compound 86, 2-(4-{2-[(2,3-dihydro-1H-inden-2-yl)amino]pyrimidin-5-yl}-3-[(4-phenyl-1,2,3,6-tetrahydropyridin-1-yl)methyl]-1H-pyrazol-1-yl)-1-{3H,4H,5H,6H,7H-[1,2,3]triazolo[4,5-c]pyridin-5-yl}ethan-1-one], the midpoint of inhibition against human ENPP2, the IC50, lay at 3 nM.

Compound `CCc1c(-c2cnc(NC3Cc4ccccc4C3)nc2)cnn1CC(=O)N1CCc2[nH]nnc2C1` [Compound 78, 2-(4-{2-[(2,3-dihydro-1H-inden-2-yl)amino]pyrimidin-5-yl}-5-ethyl-1H-pyrazol-1-yl)-1-{1H,4H,5H,6H,7H-[1,2,3]triazolo[4,5-c]pyridin-5-yl}ethan-1-one] returned an IC50 against human ENPP2 of 2.4 nM.

Consider `O=C(O)C1=CCN(C(=O)Cc2nnc(-c3cnc(NC4Cc5ccccc5C4)nc3)o2)CC1` [Compound 48, 1-[2-(5-{2-[(2,3-dihydro-1H-inden-2-yl)amino]pyrimidin-5-yl}-1,3,4-oxadiazol-2-yl)acetyl]-1,2,3,6-tetrahydropyridine-4-carboxylic Acid], for which, at human ENPP2, the IC50 is 13.3 nM.
